Our source for the IC50 values is patent publication US10654816B2, “Compounds and compositions for treating conditions associated with NLRP activity” (NOVARTIS INFLAMMASOME RESEARCH, INC., priority 2017, dated 2020).

This assay has as its system IL-1β production in PMA-differentiated THP-1 cells. The assay can be described thus: IL-1β production in PMA-differentiated THP-1 cells stimulated with gramicidin (hTHP-1 assay, HTRF readout; Procedures 1-3). The format is cell-based, human. Particulars: Homo sapiens, THP-1, hTHP-1 assay containing 2% fetal bovine serum, average, read-out: hTHP-1 IC50 (Average IC50 of compounds in hTHP-1 assay). How it is done:
The Following Protocol is Suitable for Testing the Activity of the Compounds Disclosed Herein. Procedure 1: IL-1B Production in PMA-Differentiated THP-1 Cells Stimulated with Gramicidin.
THP-1 cells were purchased from the American Type Culture Collection and sub-cultured according to instructions from the supplier. Cells were cultured in complete RPMI 1640 (containing 10% heat inactivated FBS, penicillin (100 units/ml) and streptomycin (100 μg/ml)), and maintained in log phase prior to experimental setup. Prior to the experiment, compounds were dissolved in dimethyl sulfoxide (DMSO) to generate a 30 mM stock. The compound stock was first pre-diluted in DMSO to 3, 0.34, 0.042 and 0.0083 mM intermediate concentrations and subsequently spotted using Echo550 liquid handler into an empty 384-well assay plate to achieve desired final concentration (e.g. 100, 33, 11, 3.7, 1.2, 0.41, 0.14, 0.046, 0.015, 0.0051, 0.0017 μM). DMSO was backfilled in the plate to achieve a final DMSO assay concentration of 0.37%. The plate was then sealed and stored at room temperature until required.
THP-1 cells were treated with PMA (Phorbol 12-myristate 13-acetate) (20 ng/ml) for 16-18 hours. On the day of the experiment the media was removed and adherent cells were detached with trypsin for 5 minutes. Cells were then harvested, washed with complete RPMI 1640, spun down, and resuspended in RPMI 1640 (containing 2% heat inactivated FBS, penicillin (100 units/ml) and streptomycin (100 μg/ml). The cells were plated in the 384-well assay plate containing the spotted compounds at a density of 50,000 cells/well (final assay volume 50 μl). Cells were incubated with compounds for 1 hour and then stimulated with gramicidin (5 μM) (Enzo) for 2 hours. Plates were then centrifuged at 340 g for 5 min. Cell free supernatant (40 μL) was collected using a 96-channel PlateMaster (Gilson) and the production of IL-1β was evaluated by HTRF (cisbio). The plates were incubated for 18 h at 4° C. and read using the preset HTRF program (donor emission at 620 nm, acceptor emission at 668 nm) of the SpectraMax i3x spectrophotometer (Molecular Devices, software SoftMax 6). A vehicle only control and a dose titration of CRID3 (100-0.0017 μM) were run concurrently with each experiment.
Procedure 2: IL-1β Production in PMA-Differentiated THP-1 Cells Stimulated with Gramicidin.
THP-1 cells were purchased from the American Type Culture Collection and sub-cultured according to instructions from the supplier. Prior to experiments, cells were cultured in complete RPMI 1640 (containing 10% heat inactivated FBS, penicillin (100 units/ml) and streptomycin (100 μg/ml)), and maintained in log phase prior to experimental setup. Prior to the experiment THP-1 were treated with PMA (Phorbol 12-myristate 13-acetate) (20 ng/ml) for 16-18 hours. Compounds were dissolved in dimethyl sulfoxide (DMSO) to generate a 30 mM stock.
On the day of the experiment the media was removed and adherent cells were detached with trypsin for 5 minutes. Cells were then harvested, washed with complete RPMI 1640, spun down, resuspended in RPMI 1640 (containing 2% heat inactivated FBS, penicillin (100 units/ml) and streptomycin (100 μg/ml). The cells were plated in a 384-well plate at a density of 50,000 cells/well (final assay volume 50 μl). Compounds were first dissolved in assay medium to obtain a 5× top concentration of 500 μM. 10 step dilutions (1:3) were then undertaken in assay medium containing 1.67% DMSO. 5× compound solutions were added to the culture medium to achieve desired final concentration (e.g. 100, 33, 11, 3.7, 1.2, 0.41, 0.14, 0.046, 0.015, 0.0051, 0.0017 μM). Final DMSO concentration was at 0.37%. Cells were incubated with compounds for 1 hour and then stimulated with gramicidin (5 μM) (Enzo) for 2 hours. Plates were then centrifuged at 340 g for 5 min. Cell free supernatant (40 μL) was collected using a 96-channel PlateMaster (Gilson) and the production of IL-1β was evaluated by HTRF (cisbio). […]

Setting [1] is: numeric bound printed without unit.

Where two headings read alike, the source gives them in different places.

A word on the IC50: it is the concentration that gives 50% inhibition.

Take `Cc1oc([S@](N)(=O)=NC(=O)Nc2c3c(cc4c2CCC4)CCC3)cc1C(C)(C)O` (single isomer, unassigned) [Example 3]: the IC50 (class symbols) lay within 0.2 to 1 µM. For the compound `CC(C)c1cc(F)cc(C(C)C)c1NC(=O)N=S(N)(=O)c1ccc(C(C)(C)O)cc1` (single isomer, unassigned) [Example 83, (S)- or (R)-N′-(4-fluoro-2,6-diisopropylphenylcarbamoyl)-4-(2-hydroxypropan-2-yl)benzenesulfonimidamide], the IC50 (class symbols) is 1 to 5 µM. On to `CC(C)c1cc(F)cc(C(C)C)c1NC(=O)N=S(N)(=O)c1ccc(C(C)(C)O)cc1` (single isomer, unassigned) [Example 84, (R)- or (S)-N′-(4-fluoro-2,6-diisopropylphenylcarbamoyl)-4-(2-hydroxypropan-2-yl)benzenesulfonimidamide], for which the IC50 (given as bound) was over 30 µM.

Take `Cc1cc(C(C)(C)O)sc1S(N)(=O)=NC(=O)Nc1c(C(C)C)cc(OC(F)F)cc1C(C)C` (single isomer, unassigned) [Example 109, (S)- or (R)-N′-(4-(difluoromethoxy)-2,6-diisopropylphenylcarbamoyl)-5-(2-hydroxypropan-2-yl)-3-methylthiophene-2-sulfonimidamide]: for the setting “class symbols”, the IC50 lay in the range of 0.2 to 1 µM. As for `Cc1cc(C(C)(C)O)sc1S(N)(=O)=NC(=O)Nc1c(C(C)C)cc(OC(F)F)cc1C(C)C` (single isomer, unassigned) [Example 110, (R)- or (S)-N′-(4-(difluoromethoxy)-2,6-diisopropylphenylcarbamoyl)-5-(2-hydroxypropan-2-yl)-3-methylthiophene-2-sulfonimidamide], under “given as bound”, the IC50 was over 30 µM. Consider `Cc1cc(C(C)(C)O)ccc1S(N)(=O)=NC(=O)Nc1c(C(C)C)cc(OC(F)F)cc1C1CC1` (single isomer, unassigned) [Example 119, (S)- or (R)-N′-(2-cyclopropyl-4-(difluoromethoxy)-6-isopropylphenylcarbamoyl)-4-(2-hydroxypropan-2-yl)-2-methylbenzenesulfonimidamide], for which, where the note is “class symbols”, the IC50 fell in the range of 5 to 30 µM. On to `Cc1cc(C(C)(C)O)ccc1S(N)(=O)=NC(=O)Nc1c(C(C)C)cc(OC(F)F)cc1C1CC1` (single isomer, unassigned) [Example 120, (R)- or (S)-N′-(2-cyclopropyl-4-(difluoromethoxy)-6-isopropylphenylcar-bamoyl)-4-(2-hydroxypropan-2-yl)-2-methylbenzenesulfonimidamidc], for which the IC50 (given as bound) is over 30 µM. In the case of `CC(C)c1cc(F)cc(C(C)C)c1NC(=O)N=S(N)(=O)c1ccc(CN(C)C)cc1` (single isomer, unassigned) [Example 132, (S)- or (R)-4-((dimethylamino)-methyl)-N′-(4-fluoro-2,6-diisopropylphenylcarbamoyl)-benzenesulfonimidamide], where the note is “class symbols”, the IC50 was 1 to 5 µM. With `CC(C)c1cc(F)cc(C(C)C)c1NC(=O)N=S(N)(=O)c1ccc(CN(C)C)cc1` (single isomer, unassigned) [Example 133, (R)- or (S)-4-((dimethylamino)methyl)-N′-(4-fluoro-2,6-diisopropylphenyl-carbamoyl)benzenesulfonimidamide], where the note is “given as bound”, the IC50 was over 30 µM.

As to `CC(C)c1cc(OC(F)F)cc(C2CC2)c1NC(=O)N=S(N)(=O)c1ccc(CN(C)C)cc1` (single isomer, unassigned) [Example 134, (S)- or (R)-N′-(2-cyclopropyl-4-(difluoromethoxy)-6-isopropylphenylcarbamoyl)-4-((dimethylamino)methyl)benzenesulfonimidamide], the IC50 (given as bound) was over 30 µM.

Consider `CC(C)c1cc(OC(F)F)cc(C2CC2)c1NC(=O)N=S(N)(=O)c1ccc(CN(C)C)cc1` (single isomer, unassigned) [Example 135, (R)- or (S)-N′-(2-cyclopropyl-4-(difluoromethoxy)-6-isopropylphenylcarbamoyl)-4-((dimethylamino)methyl)benzenesulfonimidamide], for which, under “class symbols”, the IC50 fell in the range of 1 to 5 µM. With `CC(C)c1cc(F)cc(C(C)C)c1NC(=O)N=S(N)(=O)c1ccc(S(C)(=O)=O)cc1` (single isomer, unassigned) [Example 144, (S)- or (R)-N′-(4-fluoro-2,6-diisopropylphenylcarbamoyl)-4-(methylsulfonyl)-benzenesulfonimidamide], the IC50 (given as bound) is over 30 µM.

With `CC(C)c1cc(F)cc(C(C)C)c1NC(=O)N=S(N)(=O)c1ccc(S(C)(=O)=O)cc1` (single isomer, unassigned) [Example 145, (R)- or (S)-N′-(4-fluoro-2,6-diisopropylphenylcarbamoyl)-4-(methylsulfonyl)-benzenesulfonimidamide], the IC50 (class symbols) lay in the range of 5 to 30 µM. Regarding `CC(C)c1cc(OC(F)F)cc(C2CC2)c1NC(=O)N=S(N)(=O)c1ccc(C(C)(C)O)cc1F` (single isomer, unassigned) [Example 166, (S)- or (R)-N′-((2-cyclopropyl-4-(difluoromethoxy)-6-isopropylphoxyproyl)-2-fluoro-4-(2-hydroxypropan-2-yl)benzenesulfonimidamide], the IC50 (class symbols) lay within 0.2 to 1 µM. For `CC(C)c1cc(OC(F)F)cc(C2CC2)c1NC(=O)N=S(N)(=O)c1ccc(C(C)(C)O)cc1F` (single isomer, unassigned) [Example 167, (R)- or (S)-N′-((2-cyclopropyl-4-(difluoromethoxy)-6-isopropylphenyl)carbamoyl)-2-fluoro-4-(2-hydroxypropan-2-yl)benzenesulfonimidamide], the IC50 under setting [1] is over 11.2 µM.

With `CC(C)(O)c1ccc(F)c(S(N)(=O)=NC(=O)Nc2c3c(c(F)c4c2CCC4)CCC3)c1` (single isomer, unassigned) [Example 168, (S)- or (R)-2-fluoro-N′-((8-fluoro-1,2,3,5,6,7-hexahydro-s-indacen-4-yl)carbamoyl)-5-(2-hydroxypropan-2-yl)benzenesulfonimidamide], the IC50 (class symbols) is 0.2 to 1 µM. Consider `CC(C)(O)c1ccc(F)c(S(N)(=O)=NC(=O)Nc2c3c(c(F)c4c2CCC4)CCC3)c1` (single isomer, unassigned) [Example 169, (S)- or (R)-2-fluoro-N′-((8-fluoro-1,2,3,5,6,7-hexahydro-s-indacen-4-yl)carbamoyl)-5-(2-hydroxypropan-2-yl)benzenesulfonimidamide], for which, under setting [1], the IC50 was over 5.59 µM. Take `CC(C)c1cc(C#N)cc(C(C)C)c1NC(=O)N=S(N)(=O)c1ccc(C(C)(C)O)c(CO)c1` (single isomer, unassigned) [Example 188, (S)- or (R)-N′-((4-cyano-2,6-diisopropylphenyl)carbamoyl)-3-(hydroxymethyl)-4-(2-hydroxypropan-2-yl)benzenesulfonimidamide]: where the note is “class symbols”, the IC50 fell in the range of 1 to 5 µM.

As for `CC(C)c1cc(C#N)cc(C(C)C)c1NC(=O)N=S(N)(=O)c1ccc(C(C)(C)O)c(CO)c1` (single isomer, unassigned) [Example 189, (R)- or (S)-N′-((4-cyano-2,6-diisopropylphoxyproyl)-3-(hydroxymethyl)-4-(2-hydroxypropan-2-yl)benzenesulfonimidamide], the IC50 (given as bound) was over 30 µM.
